Assay results reported in patent US20240415786A1, “COMPOSITIONS AND METHODS USING AN AUTOPHAGY INDUCER TO ENHANCE INTERMITTENT FASTING” (SOCIETE DES PRODUITS NESTLE S.A., priority 2021, published 2024).

How the values were obtained:
C. elegans [1] = assay: Worm survival assay in microfluidics; format: in vivo; conditions: thymol 50 μM, worms treated in microfluidics (conditions mimicking IF), vs vehicle, log rank test
Description: A worm suspension is first injected into a microfluidic device. The geometry of the device is optimized for retaining inside the worm culture chamber only adult worms by simply selecting the correct flow rate for the sample injection. Upon isolation of a defined worm population inside the chamber, worms are cultured and treated on-chip with thymol at controlled temperature of 20° C. Worm culture is maintained in the chamber by the perfusion of E. coli. The microfluidic chip is integrated onto an inverted microscope integrated with a camera that continuously records videos (every 10 hours). Images are longitudinally analyzed by different parameters that include readouts of body bends frequency, velocity, curvature and amplitude of the movement at the head, tail and middle of the body, which automatically provide information about worms health span and vitality.

C. elegans [2] = assay: Worm survival assay on solid agar plate; format: in vivo; conditions: thymol 50 M (so in the source), solid agar plates, n=60 per group, vs vehicle (DMSO 1%), log rank test
Description: C. elegans strains were cultured at 20° C. on nematode growth media agar plates seeded with E. coli strain OP50. Thymol was dissolved in DMSO and added at the indicated concentrations just before pouring the plates. Worms were exposed to compounds during the full life from eggs until death. To ensure a permanent exposure to the compound, plates were changed twice a week. The control population was treated with the corresponding concentration of DMSO at 1%. For lifespan measurements, parental F0 L4 worms were grown to reach adulthood and lay eggs on the treatment plates. The derived F1 worms were therefore exposed to compounds during the full life from eggs until death. Adults were daily scored manually as dead or alive. A worm was considered dead if it was not moving spontaneously and it was not responding to a touch on the head. The control population was treated with the corresponding concentration of DMSO at 1%.

For `Cc1ccc(C(C)C)c(O)c1` [thymol], the effect on lifespan (C. elegans [1]) was “increases lifespan” and the effect on lifespan (C. elegans [2]) was “no significant effects on lifespan”.
